The results in this text go back to ChEMBL document CHEMBL4007427, “Inhibition of the Aldehyde Dehydrogenase 1/2 Family by Psoralen and Coumarin Derivatives” (J Med Chem, 2017).

The target in test [1] is T1, Retinaldehyde dehydrogenase 3 (Homo sapiens, UniProt P47895).
T1 sequence (P47895 whole entry): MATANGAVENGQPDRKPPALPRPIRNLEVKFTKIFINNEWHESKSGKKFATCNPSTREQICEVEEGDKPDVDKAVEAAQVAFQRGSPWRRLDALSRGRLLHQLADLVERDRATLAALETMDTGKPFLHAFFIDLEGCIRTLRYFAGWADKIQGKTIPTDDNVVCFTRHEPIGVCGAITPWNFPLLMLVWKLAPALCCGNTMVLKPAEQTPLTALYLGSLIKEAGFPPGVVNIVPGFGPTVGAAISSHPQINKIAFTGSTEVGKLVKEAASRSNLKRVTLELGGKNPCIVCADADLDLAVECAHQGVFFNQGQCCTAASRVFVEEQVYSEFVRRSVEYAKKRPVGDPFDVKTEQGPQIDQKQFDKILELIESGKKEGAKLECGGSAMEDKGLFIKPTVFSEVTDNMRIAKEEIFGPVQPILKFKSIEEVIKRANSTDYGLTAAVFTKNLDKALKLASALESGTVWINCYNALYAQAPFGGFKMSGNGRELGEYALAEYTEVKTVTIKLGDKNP

Test [2] deals with T2, Aldehyde dehydrogenase X, mitochondrial (Homo sapiens, UniProt P30837).
T2 sequence (P30837 whole entry): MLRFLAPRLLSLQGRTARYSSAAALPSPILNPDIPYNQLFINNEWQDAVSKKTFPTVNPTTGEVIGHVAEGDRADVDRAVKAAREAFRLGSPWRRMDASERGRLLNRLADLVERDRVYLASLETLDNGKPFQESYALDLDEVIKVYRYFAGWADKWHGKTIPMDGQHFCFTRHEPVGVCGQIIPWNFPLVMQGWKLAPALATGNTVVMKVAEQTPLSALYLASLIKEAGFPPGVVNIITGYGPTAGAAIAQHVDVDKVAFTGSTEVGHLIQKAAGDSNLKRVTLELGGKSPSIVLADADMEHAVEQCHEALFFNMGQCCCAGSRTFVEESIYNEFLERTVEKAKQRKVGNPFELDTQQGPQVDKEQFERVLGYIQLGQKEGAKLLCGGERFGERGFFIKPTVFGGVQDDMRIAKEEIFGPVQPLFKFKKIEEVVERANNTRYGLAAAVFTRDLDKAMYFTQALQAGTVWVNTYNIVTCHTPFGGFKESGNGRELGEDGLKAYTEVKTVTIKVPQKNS

A further test concerns the target T3, Retinal dehydrogenase 2 (Homo sapiens, UniProt O94788).
T3 sequence (O94788 whole entry): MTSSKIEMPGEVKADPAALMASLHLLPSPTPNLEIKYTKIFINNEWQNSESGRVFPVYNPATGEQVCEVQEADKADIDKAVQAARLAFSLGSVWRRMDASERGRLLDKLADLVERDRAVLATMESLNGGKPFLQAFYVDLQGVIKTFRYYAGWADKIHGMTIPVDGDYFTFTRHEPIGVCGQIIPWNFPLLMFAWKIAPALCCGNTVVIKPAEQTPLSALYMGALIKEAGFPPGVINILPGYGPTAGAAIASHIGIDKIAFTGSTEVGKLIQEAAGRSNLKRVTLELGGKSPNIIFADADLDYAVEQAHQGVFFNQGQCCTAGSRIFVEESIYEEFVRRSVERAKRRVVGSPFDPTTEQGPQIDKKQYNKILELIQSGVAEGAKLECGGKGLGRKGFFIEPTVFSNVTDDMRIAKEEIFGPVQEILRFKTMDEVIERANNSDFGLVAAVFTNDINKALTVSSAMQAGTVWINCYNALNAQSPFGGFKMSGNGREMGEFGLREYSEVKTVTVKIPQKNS

In test [3] the target is T1, Retinaldehyde dehydrogenase 3. This is another data set of the same source.
Test [4] addresses T4, Aldehyde dehydrogenase 1A1 (Homo sapiens, UniProt P00352).
T4 sequence (P00352 whole entry): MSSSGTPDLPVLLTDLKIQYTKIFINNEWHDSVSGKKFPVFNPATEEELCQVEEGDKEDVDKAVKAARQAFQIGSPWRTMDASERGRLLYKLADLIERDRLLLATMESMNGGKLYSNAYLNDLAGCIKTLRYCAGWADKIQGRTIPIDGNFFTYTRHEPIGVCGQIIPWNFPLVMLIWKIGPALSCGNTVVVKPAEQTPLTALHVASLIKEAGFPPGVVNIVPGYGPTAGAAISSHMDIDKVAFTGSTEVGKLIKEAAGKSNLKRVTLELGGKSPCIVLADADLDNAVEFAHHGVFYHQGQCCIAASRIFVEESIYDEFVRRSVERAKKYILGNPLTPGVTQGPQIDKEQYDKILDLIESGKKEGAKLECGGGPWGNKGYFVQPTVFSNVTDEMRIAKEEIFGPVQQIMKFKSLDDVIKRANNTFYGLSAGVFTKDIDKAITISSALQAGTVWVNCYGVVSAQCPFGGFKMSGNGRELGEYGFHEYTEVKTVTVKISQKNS
The test is described as follows: Uncompetitive inhibition of full length recombinant human ALDH1A1 expressed in Escherichia coli BL21(DE3) using propionaldehyde as substrate in presence of varying levels NAD+ by Lineweaver-Burk plot analysis.

The target of test [5] is T5, Retinaldehyde dehydrogenase 3 (Homo sapiens) (UniProt P47895).
T5 sequence (whole entry): T1 sequence (P47895 whole entry)
The test is described as follows: Activation of full length recombinant human ALDH1A3 expressed in Escherichia coli BL21(DE3) preincubated for 2 mins followed by addition of propionaldehyde as substrate in presence of NAD+ by spectrophotometric method relative to control.

Test [6] addresses T1, Retinaldehyde dehydrogenase 3. The test is described as follows: Activation of full length recombinant human ALDH1A3 expressed in Escherichia coli BL21(DE3) preincubated for 2 mins followed by addition of propionaldehyde as substrate in presence of NAD+ by spectrophotometric method.
The target in test [7] is T5, Retinaldehyde dehydrogenase 3 (Homo sapiens). The test is described as follows: Inhibition of full length recombinant human ALDH1A3 expressed in Escherichia coli BL21(DE3) assessed as reduction in dehydrogenase activity by measuring NAD(P)H level preincubated for 2 mins followed by addition of propionaldehyde as substrate in presence of NAD+ by spectrophotometric method relative to control.

The target of test [8] is T6, Aldehyde dehydrogenase X, mitochondrial (Homo sapiens) (UniProt P30837).
T6 sequence (whole entry): T2 sequence (P30837 whole entry)
The test can be described thus: Inhibition of full length recombinant human ALDH1B1 expressed in Escherichia coli TunerDE3 assessed as reduction in dehydrogenase activity by measuring NAD(P)H level preincubated for 2 mins followed by addition of propionaldehyde as substrate in presence of NAD+ by spectrophotometric method relative to control.

Test [9] concerns the target T7, Retinal dehydrogenase 2 (Homo sapiens) (UniProt O94788).
T7 sequence (whole entry): T3 sequence (O94788 whole entry)
The test is described as follows: Inhibition of full length recombinant human ALDH1A2 expressed in Escherichia coli BL21(DE3) assessed as reduction in dehydrogenase activity by measuring NAD(P)H level preincubated for 2 mins followed by addition of propionaldehyde as substrate in presence of NAD+ by spectrophotometric method relative to control.

In [1], `CCCc1c(C)c2cc3c(C)c(C)oc3cc2oc1=O` gave an IC50 of 400 nM.

Take `COC(=O)C(C)Oc1ccc2c(C)cc(=O)oc2c1` (centres undefined): the half-maximal inhibitory concentration (IC50) result (in test [2]; against Retinal dehydrogenase 2; in test [3]) was “Not Active” in each case.

As to `Cc1oc2cc3oc(=O)c(CCC(=O)N4CCCCC4)c(C)c3cc2c1C`, in test [4], the inhibition constant Ki was 170 nM. Further, in test [1], the IC50 was found to be 14000 nM.

With `CCCc1cc(=O)oc2cc3oc(C)c(C)c3cc12`, the %max in test [5] came out at 200%. Further, in test [6], the half-maximal activity concentration (AC50) worked out at 0.87 µM.

As for `Cc1oc2cc3oc(=O)c4c(c3cc2c1C)CCC4`, in test [7], the Imax is 50 to 60%. This compound also displayed an IC50 in test [1] of 170 nM.

On to `CCCc1c(C)c2cc3c(C)coc3cc2oc1=O`, for which the concentration for half-maximal inhibition (IC50) in [1] amounted to 1100 nM.

Consider `Cc1oc2cc3oc(=O)c(C)c(C)c3cc2c1C`, for which the Imax in test [8] and in test [9] was 60% throughout. Moreover, the IC50 in test [1] turned out to be 270 nM.

Take `C/C(=N\O)c1cc2cc(Br)ccc2oc1=O`: the %max in test [5] amounted to 200%. Besides, the concentration at half-maximal activity (AC50) in test [6] came to 35 µM. The 50% inhibitory concentration (IC50) entry (in test [2]; against Retinal dehydrogenase 2) was “Not Active” each time.

For `Cc1oc2cc3oc(=O)c4c(c3cc2c1C)CCCC4`, the 50% inhibitory concentration (IC50) entry in test [3] was “Not Active”.
